According to patent US11633418B2, “Deoxyribonucleoside monophospate bypass therapy for mitochondrial DNA depletion syndrome” (priority 2015, dated 2023):

Test: Dissolution in liquid (water, formula or milk)
Type: physicochemical
Protocol: The preferred form of the administration of the deoxyribonucleoside monophosphates is in the form of disodium salts of the deoxyribonucleoside monophosphates. […] Once administered, the deoxyribonucleoside monophosphates salts convert to the free acid form. By way of example, for some of the oral administration to human patients, 2000 mg each of dTMP Na2 and dCMP Na2 were dissolved in 25 ml of water.

Dissolution in liquid (such as water, formula or milk) | Compound
easily dissolved | Nc1ccn([C@H]2C[C@H](O)[C@@H](COP(=O)([O-])[O-])O2)c(=O)n1.[Na+].[Na+] [dCMP Na2]
easily dissolved | Cc1cn([C@H]2C[C@H](O)[C@@H](COP(=O)([O-])[O-])O2)c(=O)[nH]c1=O.[Na+].[Na+] [dTMP Na2]
